Numbered stars: 1 amine (or outer) side, 2 acyl side, 3 side chain; on linkers, the order of the positions; unused ones are H or OH. Bridge positions count the residues as written; N and C are the ends. Square brackets hold non-standard residues; d marks the D form. Peptide text beside a SMILES is read from it. I, II: the chains in the order shown. Actinocin(9to1) = Cc1c2oc3c(C)ccc(C(=O)[*:1])c3nc-2c(C(=O)[*:2])c(N)c1=O; NMeV = CN[C@H](C(=O)O)C(C)C; Sar = CNCC(=O)O
Columns and labels:
Type in all cases: cell-based, human
SW480 cells [1] = settings: for inhibition of SUS-induced apoptosis: co-treatment with SUS 200 μM (CHX 10 μM; PGE2 10 μM); for effect on apoptosis: 200 μM fatty acid, 48 hours
HCT116 cells [2] = settings: for inhibition of SUS-induced apoptosis: co-treatment with SUS 125 μM (CHX 10 μM; PGE2 10 μM)
Experimental: FIGS. 1A, 1B and 1C NSAID induce apoptosis in human colorectal cancer cells. In FIG. […] Cells were collected at the indicated times, fixed and stained with Hoechst 33258 (23). The cells were counted and those with fragmented nuclei were scored as apoptotic. In FIG. 1B, HCT116 and SW480 cells were treated with SUS or INDO for 60 hours, harvested and stained as described above. Cells treated with SUS or INDO show the hallmarks of apoptosis.
(§1) This death appeared to be apoptotic, as it was accompanied by nuclear condensation and fragmentation (FIG. 1B) and exposure of phosphatidylserine groups on the cell surface, two hallmarks of apoptosis (11, 12).

SW480 cells [3] = test: Ceramide levels, E. coli diacylglycerol (DAG) kinase assay; settings: for effect on ceramide levels: 48 hours
Experimental: (§2) Cells were harvested and ceramide was quantified. The first lane of each panel corresponds to a ceramide standard (ceramide type III, Sigma). […] HCT116 and SW480 cells were treated with SUS or INDO as indicated. Ceramide levels were determined as described above. […] Control cells were treated with DMSO vehicle only. Cells were harvested at the indicated times following treatment and ceramide levels were determined as described above. The data are plotted as the mean of at least two experiments with the error bars corresponding to the standard deviation.
(§3) Ceramide levels were measured using the Escherichia coli diacylglycerol (DAG) kinase assay as previously described (30) with the following modifications. After the initial lipid extraction, phases were broken by adding 2 ml chloroform and 2 ml 1M NaCl and lipids were washed with 1M NaCl prior to drying under nitrogen (32, 33). After solubilization, samples were sonicated for 15 seconds. The DAG reaction was performed for 30 minutes at 25° C. in a 100 μl reaction volume with 3.5 μg DAG kinase (Calbiochem) and […] γ^32 P-ATP (Dupont NEN, 6000 Ci/mmol). After extraction of the labeled lipids, the lower chloroform phase was washed with 1% HCl prior to drying under nitrogen. The solvent mixture for thin layer chromatography was chloroform:acetone:methanol:acetic acid:water (10:4:3:2:1). Samples were quantitated using a Phosphorimager (Molecular Dynamics).

SW480 cells [4] = test: cells; settings: for increase in arachidonic acid: sw480 cells
Experimental: (§4) FIGS. 4A, 4B, 4C, 4D, 4E and 4F. The role of arachidonic acid in NSAID-mediated apoptosis. […] HCT116 and SW480 cells were treated with the indicated concentrations of SUS or INDO. Arachidonic acid (AA) levels were determined by measuring release of ^3 H-AA into the media as previously described (18). Data are indicated as the mean of three replicates with the error bars corresponding to the standard deviation. In addition, the nature of the released radiolabeled material was evaluated by thin layer chromatography as previously described (28). […] HCT116 and SW480 cells were incubated with ^3 H-choline chloride (0.5 mCi ml^-1, 80 Ci mmol^-1, New England Nuclear) for 48 hours. After labeling, cells were washed with HBSS (Gibco) and treated with SUS or INDO for the indicated times. Sphingomyelin measurements were performed using the bacterial sphingomyelinase method as previously described (18). Sphingomyelin levels at each time point are plotted as a percentage of that in untreated control cells. For each point, the mean of at least two independent experiments is presented with the error bars corresponding to the standard deviations. […] SW480 cells were treated with 200 μM arachidonic acid (AA), SUS (SUS) or behenic acid as a control fatty acid (FA) as indicated. […] SW480 cells were treated with suboptimal doses (100 μM) of arachidonic acid (AA), SUS (SUS), or both (AA+SUS) as indicated. After 48 hours of treatment, apoptosis and ceramide increases were assessed as described for FIGS. 1 and 3, respectively. Ceramide increases (left axis) were expressed as fold increases relative to untreated cells. Apoptosis (right axis) was expressed as percent apoptotic cells minus percent apoptotic cells in untreated cells (5.6%+/-2.4). Data are indicated as the mean of duplicates with the error bars corresponding to the standard deviation.
(§5) Arachidonic acid is known to stimulate neutral sphingomyelinase (18), which catalyzes the conversion of sphingomyelin to ceramide. We therefore considered the possibility that inhibition of COX activity might lead to increases in arachidonic acid, the substrate for COX. To test this hypothesis, we first determined whether SUS stimulated arachidonic acid accumulation. In both SW480 and HCT 116 cells, apoptosis-inducing doses of SUS increased arachidonic acid by 2 to 3 fold at 24 hours and by approximately 5 fold at 48 hours (FIGS. 4A and 4B). The arachidonic acid increase following SUS treatment was as great as that following treatment with mellitin, a known activator of phospholipase A2. Arachidonic acid levels in HCT116 cells increased 3.5 fold one hour after treatment with 1 μM mellitin. Likewise, arachidonic acid levels increased 2.9 fold in SW480 cells one hour after mellitin treatment. Arachidonic acid (AA) levels were determined by measuring release of ^3 H-AA into the media as previously described (18). The nature of released radiolabeled material was evaluated by thin layer chromatography analysis as previously described (28).

SW480 cells [5] = settings: indomethacin treatment
Experimental: FIGS. 1A, 1B and 1C NSAID induce apoptosis in human colorectal cancer cells. In FIG. 1A, HCT116 and SW480 cells were treated with indomethacin (INDO) (300 μM) or SUS (125 μM for HCT116 and 200 μM for SW480 cells). Cells were collected at the indicated times, fixed and stained with Hoechst 33258 (23). The cells were counted and those with fragmented nuclei were scored as apoptotic. In FIG. 1B, HCT116 and SW480 cells were treated with SUS or INDO for 60 hours, harvested and stained as described above. Cells treated with SUS or INDO show the hallmarks of apoptosis.
as §1

HCT116 cells [6] = test: Sphingomyelin levels, bacterial sphingomyelinase method; settings: indomethacin treatment
Experimental: as §4
(§6) To test whether the increased ceramide was associated with evidence of augmented sphingomyelinase activity, we measured total sphingomyelin levels after SUS treatment. […] We also measured neutral sphingomyelinase activity in lysates from the treated cells and no differences were found. Neutral sphingomyelinase activity was assayed as described (18). After cell lysis, protein concentrations were determined using the Bradford method (Bio-Rad) and […] cellular protein was used in each assay. Neutral sphingomyelinase activity was determined by measuring the rate of hydrolysis of ^14 C-labelled sphingomyelin (Amersham). SW480 and HCT116 cell lines were treated with SUS (50, 200, and 600 μM) for 6 to 24 hours.

SW480 cells [7] = test: as above; settings: indomethacin treatment
Experimental: as §4, §6

HCT116 cells [8] = test: Arachidonic acid levels, release of 3H-AA into the media
Experimental: as §4, §5

HCT116 cells [9] = test: Ceramide levels, E. coli diacylglycerol (DAG) kinase assay; settings: indomethacin treatment
Experimental: as §2, §3

Molecule: Cc1c2oc3c(C)ccc(C(=O)N[C@@H]4C(=O)N[C@H](C(C)C)C(=O)N5CCC[C@H]5C(=O)N(C)CC(=O)N(C)[C@@H](C(C)C)C(=O)O[C@@H]4C)c3nc-2c(C(=O)N[C@@H]2C(=O)N[C@H](C(C)C)C(=O)N3CCC[C@H]3C(=O)N(C)CC(=O)N(C)[C@@H](C(C)C)C(=O)O[C@@H]2C)c(N)c1=O [actinomycin D] (I: T[dV]P[Sar][NMeV] / II: T[dV]P[Sar][NMeV]; ester I:1-I:C, II:1-II:C; linker I:N-II:N via Actinocin(9to1))
- inhibition of SUS-induced apoptosis (SW480 cells [1]): completely inhibit apoptosis
- inhibition of SUS-induced apoptosis (HCT116 cells [2]): completely inhibit apoptosis

Molecule: CCCCC/C=C\C/C=C\C/C=C\C/C=C\CCCC(=O)O [arachidonic acid]
- effect on apoptosis (SW480 cells [1]): a potent inducer of ceramide and apoptosis
- effect on ceramide levels (SW480 cells [3]; 200 μM fatty acid): a potent inducer of ceramide and apoptosis
- effect on ceramide levels (SW480 cells [3]; suboptimal doses, 100 μM each, separately or together): little effect on ceramide levels

Molecule: CCCCCCCCCCCCCCCCCCCCCC(=O)O [behenic acid]
- effect on apoptosis (SW480 cells [1]): virtually no effect on ceramide levels and apoptosis
- effect on ceramide levels (SW480 cells [3]; 200 μM fatty acid): virtually no effect on ceramide levels and apoptosis

Molecule: C[C@@H]1C[C@@H]([C@H](O)CC2CC(=O)NC(=O)C2)C(=O)[C@@H](C)C1 [cycloheximide]
- inhibition of SUS-induced apoptosis (SW480 cells [1]): completely inhibit apoptosis
- inhibition of SW480 cell death (SW480 cells [1]; higher concentrations of SUS): could not inhibit
- inhibition of SUS-induced apoptosis (HCT116 cells [2]): completely inhibit apoptosis

Molecule: COc1ccc2c(c1)c(CC(=O)O)c(C)n2C(=O)c1ccc(Cl)cc1 [indomethacin]
- increase of arachidonic acid concentration compared with SUS (SW480 cells [4]; indomethacin treatment): to similar degrees as SUS
- increase in arachidonic acid (SW480 cells [4]): 3-4 fold
- induction of apoptosis compared with SUS (SW480 cells [5]): to similar degrees as SUS
- cells induced to undergo apoptosis (SW480 cells [5]; cycloheximide sensitive): 94%
- activation of sphingomyelin hydrolysis compared with SUS (HCT116 cells [6]): to similar degrees as SUS
- activation of sphingomyelin hydrolysis compared with SUS (SW480 cells [7]): to similar degrees as SUS
- increase of arachidonic acid concentration compared with SUS (HCT116 cells [8]; indomethacin treatment): to similar degrees as SUS
- increase of ceramide concentration compared with SUS (HCT116 cells [9]): to similar degrees as SUS
- increase in ceramide levels (SW480 cells [3]; indomethacin treatment): 6 fold
- increase of ceramide concentration compared with SUS (SW480 cells [3]; indomethacin treatment): to similar degrees as SUS
- induction of apoptosis compared with SUS (HCT116 cells [2]; indomethacin treatment): to similar degrees as SUS

Molecule: CCCCC[C@H](O)/C=C/[C@H]1[C@H](O)CC(=O)[C@@H]1C/C=C\CCCC(=O)O [prostaglandin E2]
- inhibition of SUS-induced apoptosis (SW480 cells [1]): No inhibition of apoptosis was observed
- inhibition of SUS-induced apoptosis (HCT116 cells [2]): No inhibition of apoptosis was observed

Molecule: ceramide
- increase in arachidonic acid (SW480 cells [4]; 16 h, 100 µM): 1.9 fold
- increase in arachidonic acid (HCT116 cells [8]; hct116 cells, 16 h, 100 µM): 1.5 fold
- induction of apoptosis (SW480 cells [1]; human, sw480 cells, 16 h, 100 µM): > 90%
- induction of apoptosis (HCT116 cells [2]; human, hct116 cells, 16 h, 100 µM): > 90%

Molecule: mellitin
- increase in arachidonic acid levels (SW480 cells [4]; one hour after mellitin treatment, 60 min): 2.9 fold
- increase in arachidonic acid levels (HCT116 cells [8]; one hour after 1 μM mellitin): 3.5 fold

Reference: US5874235A, “Screening assays for cancer chemopreventative agents” (The Johns Hopkins University, priority 1997, dated 1999)
